Measured values from paper PMC7774954, “Interactomic affinity profiling by holdup assay: Acetylation and distal residues impact the PDZome-binding specificity of PTEN phosphatase” (PLoS ONE, 2020).
pKd: −log10 of the molar value. *1 amine or outer side, *2 acyl side, *3 side chain or, on linkers, in order; H or OH if unused. Where a SMILES comes first, the peptide text is derived from it. The star is where a group is joined. X1 = O=C(CCCC[C@@H]1SC[C@@H]2NC(=O)N[C@@H]21)NCCCOCCOCCOCCCN*; Suc = O=C(CCC(=O)[*:2])[*:1]

Tests used:
INADL-6 = INADL-6 (Homo sapiens, UniProt Q8NI35); assay: Holdup assay, INADL-6; assay type: binding
Sequence of INADL-6 (Q8NI35 whole entry): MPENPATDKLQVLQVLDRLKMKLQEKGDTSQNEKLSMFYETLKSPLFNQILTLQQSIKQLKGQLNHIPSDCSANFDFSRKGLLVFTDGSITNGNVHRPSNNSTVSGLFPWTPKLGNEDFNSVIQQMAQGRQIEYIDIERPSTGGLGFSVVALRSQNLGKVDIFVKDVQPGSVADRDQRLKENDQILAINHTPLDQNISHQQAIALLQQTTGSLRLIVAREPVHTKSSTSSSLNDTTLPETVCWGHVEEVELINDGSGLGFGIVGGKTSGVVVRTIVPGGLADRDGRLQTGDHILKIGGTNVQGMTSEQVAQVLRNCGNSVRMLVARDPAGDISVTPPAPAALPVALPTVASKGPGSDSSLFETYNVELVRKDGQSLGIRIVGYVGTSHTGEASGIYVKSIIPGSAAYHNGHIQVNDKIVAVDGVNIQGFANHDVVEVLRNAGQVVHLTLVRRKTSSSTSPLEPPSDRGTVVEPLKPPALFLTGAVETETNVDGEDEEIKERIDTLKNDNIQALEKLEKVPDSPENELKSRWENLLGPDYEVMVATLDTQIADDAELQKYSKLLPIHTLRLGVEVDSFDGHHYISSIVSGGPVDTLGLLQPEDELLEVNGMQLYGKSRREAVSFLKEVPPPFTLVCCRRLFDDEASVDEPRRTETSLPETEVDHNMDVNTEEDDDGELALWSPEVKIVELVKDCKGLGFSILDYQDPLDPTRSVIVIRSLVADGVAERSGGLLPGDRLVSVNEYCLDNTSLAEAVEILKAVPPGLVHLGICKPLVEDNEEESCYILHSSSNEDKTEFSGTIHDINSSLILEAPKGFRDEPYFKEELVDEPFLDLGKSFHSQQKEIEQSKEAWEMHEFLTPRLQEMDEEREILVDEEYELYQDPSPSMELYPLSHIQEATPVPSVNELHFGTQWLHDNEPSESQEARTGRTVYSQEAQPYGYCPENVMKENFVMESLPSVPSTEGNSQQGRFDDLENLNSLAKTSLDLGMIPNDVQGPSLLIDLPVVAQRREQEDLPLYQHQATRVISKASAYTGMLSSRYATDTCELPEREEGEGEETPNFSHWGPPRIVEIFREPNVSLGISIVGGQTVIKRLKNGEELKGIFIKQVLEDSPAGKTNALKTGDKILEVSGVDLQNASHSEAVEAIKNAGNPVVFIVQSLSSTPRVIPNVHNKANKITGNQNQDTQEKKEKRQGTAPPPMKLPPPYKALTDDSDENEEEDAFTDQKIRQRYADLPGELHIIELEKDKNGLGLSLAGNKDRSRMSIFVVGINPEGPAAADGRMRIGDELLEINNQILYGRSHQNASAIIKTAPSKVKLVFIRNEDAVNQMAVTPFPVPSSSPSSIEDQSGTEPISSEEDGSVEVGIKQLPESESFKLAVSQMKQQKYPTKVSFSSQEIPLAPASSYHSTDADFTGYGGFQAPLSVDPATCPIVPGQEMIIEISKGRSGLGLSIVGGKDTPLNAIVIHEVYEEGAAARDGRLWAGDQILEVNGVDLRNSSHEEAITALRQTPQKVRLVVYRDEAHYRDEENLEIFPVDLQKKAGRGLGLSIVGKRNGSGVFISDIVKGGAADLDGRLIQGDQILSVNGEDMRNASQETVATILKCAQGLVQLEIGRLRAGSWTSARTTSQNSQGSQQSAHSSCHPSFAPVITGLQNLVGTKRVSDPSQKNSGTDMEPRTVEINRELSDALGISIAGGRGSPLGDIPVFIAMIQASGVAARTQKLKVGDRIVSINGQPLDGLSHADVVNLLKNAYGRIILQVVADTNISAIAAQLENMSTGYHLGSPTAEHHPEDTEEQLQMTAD

INADL-9 = assay: Holdup assay, INADL-9; assay type: binding, human
MAST1 PDZ 1 = biological target: T1, MAST1 PDZ 1 (Homo sapiens, UniProt Q9Y2H9); assay: Holdup assay, MAST1-1; assay type: binding; conditions: for BI: MAST1-1
T1 construct: made in house; host or cells: E. coli
T1 sequence (Q9Y2H9 967-1055 limits assumed): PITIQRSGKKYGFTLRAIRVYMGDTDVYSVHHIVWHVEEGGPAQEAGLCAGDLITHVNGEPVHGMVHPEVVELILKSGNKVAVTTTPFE
Method: (§1) The holdup assay was performed on a Tecan freedom Evo200 robot with 384-well plates in singlicate for the three 11-mer PTEN variants and the 13-mer PTEN peptide as described in [31, 32]. Briefly, prior to interaction assay, 2.5 μL of streptavidin resin was saturated in each well with 20 μL of biotinylated PBM peptides (42 μM) and then washed twice with an excess of free biotin, while the reference resin was incubated only with biotin. Right before the holdup experiment, the PDZ library was spiked with an internal standard of lysozyme. Then, the biotin- or PBM-saturated resin was incubated, each in a distinct well of a 384-well plate, with complete cell lysates diluted so that the concentration of the tag-PDZ present in the crude extract is adjusted at 4 μM. After a sufficient time to reach complex equilibrium (15 min.), a fast and mild filtration step is performed and the tag-PDZ concentrations were measured by capillary electrophoresis instrument (LabChip GXII, PerkinElmer, Massachusets, USA). Standard markers were used to convert migration time into molecular weight on the LabChip software and inappropriate molecular weight markers were corrected or excluded.
(§2) For filtered data, the BI was extracted with the following equation (Eq 1) that estimates the depleted fraction after superimposition of the sample and reference electropherograms: BI=Iref−Ilig/Iref (1) where Iref and Ilig are the intensities of the tag-PDZ peaks measured, for each PDZ domain/PBM peptide interaction pair, in the biotin reference and the PBM electropherograms, respectively.
(§3) BIs were transformed into dissociation constants (KD) using the following formula: KD=([PDZtot]−BI·[PDZtot])·([PBMtot]−BI·[PDZtot])/BI·[PDZtot] (2) where [PDZtot] and [PBMtot] correspond to the total concentrations of the PDZ domain (usually around 4 μM) and the PBM peptide used during the assay. Since the PBMtot concentration in the resin during the holdup assay parameter may differ from one peptide to another and remains unknown, it is impossible to directly convert BI values into KD constants. We systematically determined the KD constants for a subset of PDZ/PBM pairs by competitive FP. […] For each PBM, the average peptide concentration was calculated after outlier rejection based on the absolute distances from the median as compared to three times the standard deviation (3σ rule), with never more than 2 values rejected.

DLG5-3 = assay: Holdup assay, DLG5-3; assay type: binding, human
ARHGAP21-1 = assay: Holdup assay, ARHGAP21-1; assay type: binding, human
INADL-10 = assay: Holdup assay, INADL-10; assay type: binding, human
GRID2IP-1 = assay: Holdup assay, GRID2IP-1; assay type: binding, human
DLG3-1 = assay: Holdup assay, DLG3-1; assay type: binding, human
NHERF2 PDZ 1 = biological target: T2, NHERF2 PDZ 1 (Homo sapiens, UniProt Q15599); assay: Holdup assay, NHERF2-1; assay type: binding; conditions: PDZ domain NHERF2-1
T2 construct: made in house; host or cells: E. coli
T2 sequence (Q15599 11-90 limits assumed): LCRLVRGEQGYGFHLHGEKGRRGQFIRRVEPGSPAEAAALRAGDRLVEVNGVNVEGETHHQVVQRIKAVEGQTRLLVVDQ
Method: as §1, §2, §3

INTU-1 = assay: Holdup assay, INTU-1; assay type: binding, human
GORASP1-1 = GORASP1-1 (Homo sapiens, UniProt Q9BQQ3); assay: Holdup assay, GORASP1-1; assay type: binding
Sequence of GORASP1-1 (Q9BQQ3 2-440): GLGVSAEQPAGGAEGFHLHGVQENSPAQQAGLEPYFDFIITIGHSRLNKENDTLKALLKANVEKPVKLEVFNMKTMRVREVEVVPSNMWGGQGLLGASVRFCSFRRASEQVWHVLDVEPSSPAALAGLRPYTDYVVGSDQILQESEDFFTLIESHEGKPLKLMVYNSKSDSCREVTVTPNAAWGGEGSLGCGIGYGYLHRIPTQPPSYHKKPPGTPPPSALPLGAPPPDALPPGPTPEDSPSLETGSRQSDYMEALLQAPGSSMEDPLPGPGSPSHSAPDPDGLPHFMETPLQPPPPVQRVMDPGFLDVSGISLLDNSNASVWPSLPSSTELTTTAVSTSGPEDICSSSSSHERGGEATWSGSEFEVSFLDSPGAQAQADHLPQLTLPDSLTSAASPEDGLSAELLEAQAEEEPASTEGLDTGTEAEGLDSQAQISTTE

MAGI2-4 = MAGI2-4 (Homo sapiens, UniProt Q86UL8); assay: Holdup assay, MAGI2-4; assay type: binding
Sequence of MAGI2-4 (Q86UL8 whole entry): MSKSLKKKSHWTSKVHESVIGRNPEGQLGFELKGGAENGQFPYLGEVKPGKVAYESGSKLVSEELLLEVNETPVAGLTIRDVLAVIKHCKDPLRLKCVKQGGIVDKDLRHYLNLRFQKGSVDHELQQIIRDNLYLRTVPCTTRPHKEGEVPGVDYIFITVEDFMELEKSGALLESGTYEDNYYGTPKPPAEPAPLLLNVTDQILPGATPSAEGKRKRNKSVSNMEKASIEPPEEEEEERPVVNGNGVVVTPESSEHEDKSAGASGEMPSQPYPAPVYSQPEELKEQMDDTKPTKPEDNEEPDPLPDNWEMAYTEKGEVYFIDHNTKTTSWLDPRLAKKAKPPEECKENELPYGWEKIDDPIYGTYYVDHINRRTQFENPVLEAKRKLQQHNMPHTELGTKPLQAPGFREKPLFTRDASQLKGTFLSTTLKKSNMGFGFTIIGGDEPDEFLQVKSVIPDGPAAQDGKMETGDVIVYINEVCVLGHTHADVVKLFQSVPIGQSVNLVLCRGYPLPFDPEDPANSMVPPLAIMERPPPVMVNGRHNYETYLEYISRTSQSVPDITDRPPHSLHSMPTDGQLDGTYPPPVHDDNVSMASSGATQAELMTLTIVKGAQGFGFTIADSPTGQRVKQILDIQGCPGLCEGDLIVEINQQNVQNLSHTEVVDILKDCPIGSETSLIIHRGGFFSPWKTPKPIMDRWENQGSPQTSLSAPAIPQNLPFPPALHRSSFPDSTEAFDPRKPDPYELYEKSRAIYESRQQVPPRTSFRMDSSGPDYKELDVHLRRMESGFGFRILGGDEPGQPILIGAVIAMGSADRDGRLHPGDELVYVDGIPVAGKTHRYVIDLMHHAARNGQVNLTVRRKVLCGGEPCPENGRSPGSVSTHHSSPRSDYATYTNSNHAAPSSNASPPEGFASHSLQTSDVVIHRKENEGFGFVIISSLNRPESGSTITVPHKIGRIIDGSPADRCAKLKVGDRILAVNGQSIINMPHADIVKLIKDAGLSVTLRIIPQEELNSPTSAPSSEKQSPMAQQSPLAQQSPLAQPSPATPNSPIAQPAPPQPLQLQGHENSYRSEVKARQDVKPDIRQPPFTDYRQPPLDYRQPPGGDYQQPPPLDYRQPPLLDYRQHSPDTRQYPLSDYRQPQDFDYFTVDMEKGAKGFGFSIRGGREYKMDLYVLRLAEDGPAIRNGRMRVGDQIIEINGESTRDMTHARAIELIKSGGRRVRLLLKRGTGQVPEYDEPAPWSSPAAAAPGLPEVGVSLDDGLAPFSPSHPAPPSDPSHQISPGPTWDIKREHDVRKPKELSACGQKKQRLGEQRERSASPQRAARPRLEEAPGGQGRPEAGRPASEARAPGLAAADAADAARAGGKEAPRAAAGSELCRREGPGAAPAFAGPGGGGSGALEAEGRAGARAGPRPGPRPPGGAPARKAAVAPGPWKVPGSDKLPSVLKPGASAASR

GRIP1-6 = assay: Holdup assay, GRIP1-6; assay type: binding, human
DLG1 PDZ 2 = biological target: T3, DLG1 PDZ 2 (Homo sapiens, UniProt Q12959); assay: Holdup assay, DLG1-2; assay type: binding; conditions: for BI: DLG1-2
T3 construct: made in house; host or cells: E. coli
T3 sequence (Q12959 319-405 limits assumed): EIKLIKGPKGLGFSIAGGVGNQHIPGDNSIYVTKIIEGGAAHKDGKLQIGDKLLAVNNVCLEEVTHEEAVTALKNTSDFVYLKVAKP
Method: as §1, §2, §3

PTPN13 PDZ 2 = biological target: T4, PTPN13 PDZ 2 (Homo sapiens, UniProt Q12923); assay: Holdup assay, PTPN13-2; assay type: binding; conditions: for BI: PDZ domain PTPN13-2
T4 construct: made in house; host or cells: E. coli
T4 sequence (Q12923 1368-1452 limits assumed): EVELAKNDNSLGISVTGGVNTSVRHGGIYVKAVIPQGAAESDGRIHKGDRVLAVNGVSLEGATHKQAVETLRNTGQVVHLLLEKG
Method: as §1, §2, §3

MAGI2 PDZ 2 = biological target: T5, MAGI2 PDZ 2 (Homo sapiens, UniProt Q86UL8); assay: Holdup assay, MAGI2-2; assay type: binding; conditions: for BI: MAGI2-2
T5 construct: made in house; host or cells: E. coli
T5 sequence (Q86UL8 426-510 limits assumed): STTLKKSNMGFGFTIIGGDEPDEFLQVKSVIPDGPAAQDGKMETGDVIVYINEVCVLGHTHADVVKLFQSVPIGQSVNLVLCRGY
Method: as §1, §2, §3

LAP2-1 = LAP2-1 (Homo sapiens, UniProt Q96RT1); assay: Holdup assay, LAP2-1; assay type: binding
Sequence of LAP2-1 (Q96RT1 1321-1410): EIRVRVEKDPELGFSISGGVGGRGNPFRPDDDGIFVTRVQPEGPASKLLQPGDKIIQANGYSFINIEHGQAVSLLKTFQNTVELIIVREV

DLG4 PDZ 3 = biological target: T6, DLG4 PDZ 3 (Homo sapiens, UniProt P78352); assay: Holdup assay, DLG4-3; assay type: binding
T6 construct: made in house; host or cells: E. coli
T6 sequence (P78352 313-393 limits assumed): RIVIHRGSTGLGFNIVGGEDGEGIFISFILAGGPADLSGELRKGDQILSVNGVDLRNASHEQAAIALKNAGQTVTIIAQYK
Method: as §1, §2, §3

SNTB2 PDZ 1 = biological target: T7, SNTB2 PDZ 1 (Homo sapiens, UniProt Q13425); assay: Holdup assay, SNTB2-1; assay type: binding; conditions: for BI: PDZ domain SNTB2-1
T7 construct: made in house; host or cells: E. coli
T7 sequence (Q13425 115-198 limits assumed): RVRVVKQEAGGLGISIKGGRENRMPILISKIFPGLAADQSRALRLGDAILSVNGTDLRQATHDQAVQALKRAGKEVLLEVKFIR
Method: as §1, §2, §3

INADL-7 = INADL-7 (Homo sapiens, UniProt Q8NI35); assay: Holdup assay, INADL-7; assay type: binding
Sequence of INADL-7 (Q8NI35 whole entry): as the sequence (Q8NI35 whole entry) above

GIPC2-1 = biological target: T8, GIPC2-1 (Homo sapiens, UniProt Q8TF65); assay: Holdup assay, GIPC2-1; assay type: binding
T8 sequence (Q8TF65 1-315): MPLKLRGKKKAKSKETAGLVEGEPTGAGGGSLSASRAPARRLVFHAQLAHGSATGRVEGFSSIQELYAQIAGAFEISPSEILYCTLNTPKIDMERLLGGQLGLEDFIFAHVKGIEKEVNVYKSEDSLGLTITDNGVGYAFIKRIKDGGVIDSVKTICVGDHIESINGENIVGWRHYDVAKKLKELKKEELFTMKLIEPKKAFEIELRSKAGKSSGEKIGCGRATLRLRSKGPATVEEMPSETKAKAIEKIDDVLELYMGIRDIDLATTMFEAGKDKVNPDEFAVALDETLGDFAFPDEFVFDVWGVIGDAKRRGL

SMILES	BI (INADL-6)	LogKD (INADL-6)	BI (INADL-9)	LogKD (INADL-9)	pKd (MAST1 PDZ 1)	BI (DLG5-3)	BI (ARHGAP21-1)	BI (GRID2IP-1)	BI (DLG3-1)	BI (NHERF2 PDZ 1)	BI (INTU-1)	BI (GORASP1-1)	BI (MAGI2-4)	BI (GRIP1-6)	BI (DLG1 PDZ 2)	BI (PTPN13 PDZ 2)	BI (MAGI2 PDZ 2)	BI (LAP2-1)	BI (DLG4 PDZ 3)	BI (INADL-7)	also measured
CC[C@H](C)[C@H](NC(=O)[C@H](CCC(N)=O)NC(=O)[C@@H](NC(=O)[C@H](Cc1c[nH]cn1)NC(=O)[C@H](CCC(N)=O)NC(=O)[C@H](CC(=O)O)NC(=O)[C@H](CCC(=O)O)NC(=O)[C@H](CC(=O)O)NC(=O)CCC(=O)NCCCOCCOCCOCCCNC(=O)CCCC[C@@H]1SC[C@@H]2NC(=O)N[C@@H]21)[C@@H](C)O)C(=O)N[C@H](C(=O)N[C@@H](CCCCN)C(=O)N[C@H](C(=O)O)C(C)C)[C@@H](C)O [PTEN_11]	0.077	3.519	0.014	3.519	4.41	0.034	-0.072	-0.012	0	0.099	-0.089	0.037	0.06	0.065	0.09	0.184	0.18	0.305	-0.018	0.136	BI (MAST1 PDZ 1): 0.455; LogKD (DLG5-3): 3.519; LogKD (ARHGAP21-1): 3.519; BI (INADL-10): 0.022; LogKD (INADL-10): 3.519; LogKD (GRID2IP-1): 3.519; LogKD (DLG3-1): 3.519; LogKD (INTU-1): 3.519; LogKD (GORASP1-1): 3.519; LogKD (MAGI2-4): 3.519; LogKD (GRIP1-6): 3.519; pKd (LAP2-1): 4.13; BI (SNTB2 PDZ 1): 0.023
CC[C@H](C)[C@H](NC(=O)[C@H](CCC(N)=O)NC(=O)[C@@H](NC(=O)[C@H](Cc1c[nH]cn1)NC(=O)[C@H](CCC(N)=O)NC(=O)[C@H](CC(=O)O)NC(=O)[C@H](CCC(=O)O)NC(=O)[C@H](CC(=O)O)NC(=O)[C@H](Cc1ccccc1)NC(=O)[C@@H]1CCCN1C(=O)CCC(=O)NCCCOCCOCCOCCCNC(=O)CCCC[C@@H]1SC[C@@H]2NC(=O)N[C@@H]21)[C@@H](C)O)C(=O)N[C@H](C(=O)N[C@@H](CCCCN)C(=O)N[C@H](C(=O)O)C(C)C)[C@@H](C)O [PTEN_13] ({X1-Suc}-PFDEDQHTQITKV-OH)	0.044	3.826	-0.062		5.12	0.002	0.028	0.044	-0.03	0.11	-0.039	0.076	-0.036	0.004	0.168	0.482	0.082	0.172	-0.097	0.07	BI (INADL-10): -0.05; LogKD (GORASP1-1): 3.826; BI (GIPC2-1): -0.087; LogKD (MAGI2-4): 3.826; pKd (PTPN13 PDZ 2): 4.79; pKd (SNTB2 PDZ 1): 4.19; BI (SNTB2 PDZ 1): 0.202; LogKD (INADL-7): 3.826
CC[C@H](C)[C@H](NC(=O)[C@H](CCC(N)=O)NC(=O)[C@@H](NC(=O)[C@H](Cc1c[nH]cn1)NC(=O)[C@H](CCC(N)=O)NC(=O)[C@H](CC(=O)O)NC(=O)[C@H](CCC(=O)O)NC(=O)[C@H](CC(=O)O)NC(=O)CCC(=O)NCCCOCCOCCOCCCNC(=O)CCCC[C@@H]1SC[C@@H]2NC(=O)N[C@@H]21)[C@@H](C)O)C(=O)N[C@H](C(=O)N[C@@H](CCCNC(=N)N)C(=O)N[C@H](C(=O)O)C(C)C)[C@@H](C)O [PTEN_KR] ({X1-Suc}-DEDQHTQITRV-OH)	0.066	3.655	0.068	3.655	4.49	-0.084	0.074	-0.033	0.066	0.169	-0.043	0.122	0.116	0.038	0.253	0.138	0.443	0.205	0.043	0.176	BI (MAST1 PDZ 1): 0.42; LogKD (DLG5-3): 3.655; LogKD (ARHGAP21-1): 3.655; BI (INADL-10): 0.019; LogKD (INADL-10): 3.655; LogKD (GRID2IP-1): 3.655; LogKD (DLG3-1): 3.655; LogKD (INTU-1): 3.655; LogKD (GIPC2-1): 3.655; LogKD (GRIP1-6): 3.655; pKd (DLG1 PDZ 2): 4.15; pKd (MAGI2 PDZ 2): 4.53; pKd (LAP2-1): 4.03; BI (SNTB2 PDZ 1): 0.009
CC[C@H](C)[C@H](NC(=O)[C@H](CCC(N)=O)NC(=O)[C@@H](NC(=O)[C@H](Cc1c[nH]cn1)NC(=O)[C@H](CCC(N)=O)NC(=O)[C@H](CC(=O)O)NC(=O)[C@H](CCC(=O)O)NC(=O)[C@H](CC(=O)O)NC(=O)CCC(=O)NCCCOCCOCCOCCCNC(=O)CCCC[C@@H]1SC[C@@H]2NC(=O)N[C@@H]21)[C@@H](C)O)C(=O)N[C@H](C(=O)N[C@@H](CCCCNC(C)=O)C(=O)N[C@H](C(=O)O)C(C)C)[C@@H](C)O [PTEN_Ac]	0.316		0.072	3.605	4.58	-0.047	0.012	-0.067	0.013	0.078	0.042	0.151	0.1	-0.056	0.425	0.044	0.325	0.214	-0.024	0.306	pKd (INADL-6): 4.24; BI (MAST1 PDZ 1): 0.497; LogKD (DLG5-3): 3.605; LogKD (ARHGAP21-1): 3.605; LogKD (GRID2IP-1): 3.605; LogKD (DLG3-1): 3.605; LogKD (INTU-1): 3.605; LogKD (GIPC2-1): 3.605; LogKD (MAGI2-4): 3.605; LogKD (GRIP1-6): 3.605; pKd (DLG1 PDZ 2): 4.45; pKd (MAGI2 PDZ 2): 4.26; pKd (LAP2-1): 4.00; pKd (INADL-7): 4.22
